Values of other authors as cited in patent US20260201040A1, “TREATMENT OF SICKLE CELL DISEASE” (BioLineRx Ltd., priority 2022, published 2026).

Test system: CD34+ HSCs
Settings: short-acting CXCR4i, alone

Which “yield of optimal HSC numbers for gene therapy applications” value does the source give for c1cc(CN2CCCNCCNCCCNCC2)ccc1CN1CCCNCCNCCCNCC1 [plerixafor] here?
The value was “does not reliably yield optimal HSC numbers”.
